The results in this text go back to PubChem BioAssay (NCI).

Several values for one entry are separate records, joined by “and”; a condition that tells them apart may be missing. Equal values may be shown once.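 A five-concentration, 48-hour dose response in 96-well plates underlies each endpoint, interpolated linearly between surrounding concentrations. Here, GI50 denotes the concentration required for 50% inhibition of growth. The concentration for full growth arrest is given as TGI.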 A value given as a limit tells only on which side of the number the result lay.

What all share (experiment): DTP human tumour cell line panel, 48 h
The subject of experiment [1] is OVCAR-3 ovarian.
The subject of experiment [2] is NCI-H23 lung.
In experiment [3] the test system is SNB-19 CNS.
Experiment [4] relates to A498 renal.
For experiment [5], the system named is MOLT-4 leukemia.
Experiment [6] deals with SK-MEL-28 melanoma.
For experiment [7], the system named is CCRF-CEM leukemia.
Experiment [8] concerns SF-539 CNS.
Experiment [9] concerns IGROV1 ovarian.
Experiment [10] relates to UACC-257 melanoma.

With `COCCOc1cc(F)c2c(Nc3ccc(NC(=O)Cn4cc(C(C)C)nn4)cc3)ncnc2c1`, the GI50 in experiment [1] is above 100 µM; in experiment [2] it was above 100 µM; in experiment [3], 41 µM; in experiment [4], above 100 µM; in experiment [5], above 100 µM; in [6], above 100 µM. Besides, the GI50 is above 100 µM in experiment [7], 6.41 µM in experiment [8], above 100 µM in experiment [9] and above 100 µM in experiment [10]. Further, the TGI in [1], in [2], in experiment [3], in experiment [4], in experiment [5] and in experiment [6] was above 100 µM in each case. The TGI in [7], in [8], in [9] and in experiment [10] was above 100 µM each time.
With `CC(C)c1ccc(Nc2ccc3c(OCCCN4CCN(C)CC4)cccc3n2)cc1`, the GI50 in [1] was 14.4 µM; in experiment [2] it was 11.9 µM; in experiment [3], 12.5 µM; in [4], 16.4 µM; in [5], 2.92 µM; in experiment [6], 1.89 µM. In addition, the GI50 in [7] is 3.74 µM; in [8] it was 11.1 µM; in experiment [9] it was 16.1 µM; in experiment [10] it was 5.65 µM. In addition, the TGI was 27.5 µM in experiment [1]; 26.1 µM in [2]; 30 µM in experiment [3]; 36.8 µM in experiment [4]; 8.2 µM in [5]; 4.32 µM in experiment [6]. For the same compound, the TGI in [7] amounted to 21.3 µM; in experiment [8], 30 µM; in experiment [9], 32.6 µM; in experiment [10] it was 16.2 µM.
With `CC[C@]12C=CCN3CC[C@@]4(c5ccc(OC)cc5N(C)[C@H]4[C@@](O)(C(=O)OC)[C@@H]1OC(=O)CCC[P+](c1ccccc1)(c1ccccc1)c1ccccc1)[C@@H]32`, the GI50 in [1] was 0.291 µM and 0.447 µM; in experiment [2], 1.11 µM and 0.984 µM; in experiment [3], 0.296 µM and 0.382 µM; in experiment [4], 1.71 µM and 1.97 µM; in experiment [5], 1.04 µM and 1.1 µM; in experiment [6], 0.274 µM and 0.442 µM. Further, the GI50 is 0.64 µM and 0.609 µM in [7]; 0.648 µM and 0.769 µM in [8]; 0.235 µM and 0.394 µM in experiment [9]; 0.364 µM and 0.275 µM in [10]. Further, the TGI in experiment [1] is 2.97 µM and 1.99 µM; in [2], 5.5 µM and 7.77 µM; in experiment [3], 6.04 µM and 1.66 µM; in [4] it was 4.87 µM and 5.7 µM; in experiment [5], 4.75 µM and 3.68 µM; in [6], 1.06 µM and 1.67 µM. Also, the TGI is 5.44 µM and 2.68 µM in [7]; 5.78 µM and 4.78 µM in [8]; 0.923 µM and 1.61 µM in [9]; 1.82 µM and 0.94 µM in experiment [10].
For the compound `O=C(O/N=C1/CCCC/C1=C\c1ccccc1)c1ccccc1`, the TGI was above 100 µM in experiment [1]; above 100 µM in experiment [2]; above 100 µM in experiment [3]; 0.514 µM in experiment [4]; 49 µM in [5]; above 100 µM in experiment [6]. Besides, the concentration for total growth inhibition (TGI) in [7] is above 100 µM; in [8], above 100 µM; in experiment [9], 0.78 µM; in experiment [10], above 100 µM.
With `CC1=CC(/C=C(\C)CCCc2ccoc2)C2(OC(=O)C(C)=C2O)[C@H]2C1CC[C@@H]2C` (stereo not given in full), the TGI in experiment [1] is 51 µM; in experiment [2], 67.2 µM; in [3], 42.6 µM; in [4], 49.2 µM; in experiment [5], 41.3 µM; in [6] it was above 100 µM. For the same compound, the TGI is 58.6 µM in [7], 36.8 µM in [8], above 100 µM in experiment [9] and above 100 µM in experiment [10].
For the compound `CC/C(=C(/c1ccc(OCCN(C)C)cc1)c1ccc(OC(=O)CCCCC(=O)c2c(C)[nH]c(/C=C3\N=C(c4ccc[nH]4)C=C3OC)c2C)cc1)c1ccccc1`, the GI50 in [1] is 11.7 µM; in experiment [2], 12.7 µM; in experiment [3] it was 12.8 µM; in [4], 12.8 µM; in [5] it was 1.73 µM; in experiment [6], 11.6 µM. Besides, the GI50 in [7] was 0.32 µM; in experiment [8], 7.32 µM; in experiment [9] it was 13.3 µM; in experiment [10], 12 µM. Besides, the TGI in experiment [1] came to 27 µM; in experiment [2], 29.7 µM; in experiment [3] it was 27.4 µM; in [4], 26.1 µM; in [5] it was 24.8 µM; in [6], 23.7 µM. Further, the TGI is above 100 µM in experiment [7], 20.6 µM in experiment [8], 46 µM in experiment [9] and 28.9 µM in experiment [10].
On to `Cc1cc(Br)cc(C)c1NC(=O)C(=O)C(C(=O)c1ccc2ccccc2c1)C1OC(=O)c2ccccc21` (stereo not given), for which the TGI in [1] was above 64.8 µM; in experiment [2], 13.6 µM; in experiment [3], 29.3 µM; in experiment [4], 25.6 µM; in experiment [5], 13.4 µM; in experiment [6] it was 14.2 µM. Moreover, the TGI in [7] amounted to 45.1 µM; in experiment [8] it was 11.2 µM; in experiment [9], 51.8 µM; in [10] it was 17.5 µM.
Take `CC(C)(C)OC(=O)NCC(=O)OCc1ccccc1`: the TGI in [1], in experiment [2], in [3], in experiment [4], in experiment [5] and in experiment [6] was above 100 µM in each case. In addition, the TGI in [7], in [8], in [9] and in experiment [10] was above 100 µM each time.
`CC(=O)OC1Oc2ccccc2-c2oc(=O)c(-c3cc(=O)oc4cc(O)ccc34)cc21` (stereo not given): the GI50 in experiment [1] is 13.8 µM; in experiment [2] it was 5.53 µM; in experiment [3], 26.6 µM; in experiment [4], 13.3 µM; in experiment [5], 4.33 µM; in experiment [6], 34.5 µM. Besides, the GI50 in [7] is 9.38 µM; in experiment [8] it was 17.4 µM; in experiment [9] it was 20.8 µM; in experiment [10], 23.9 µM. Besides, the TGI in experiment [1] was 41.4 µM; in experiment [2], 25.6 µM; in experiment [3], above 100 µM; in experiment [4], 40.4 µM; in [5] it was 20.1 µM; in experiment [6] it was above 100 µM. Moreover, the TGI in experiment [7] stood at 40.8 µM; in experiment [8], 38.2 µM; in experiment [9], 83.6 µM; in [10], 79 µM.
